According to patent US8540967B2, “Porphyrazine optical and dual optical/MR contrast and therapeutic agents” (Hoffman/Barrett, L.L.C., priority 2008, dated 2013):

Tests used:
[1] = system: WI38 VA13 non-tumorigenic cells; assay: MTT assay, non-tumorigenic cells; format: cell-based; details: 50 μM
Experimental: (§1) The MTT test was performed using the procedure disclosed in S. Lee et al., Metal-Based Drugs (2008), pages 391-418.

[2] = system: PC3-EGFP (human prostate tumor cells stably expressing GFP) tibia tumors; assay: Biodistribution by NIR fluorescence imaging in mice with tibia tumors; format: in vivo, mouse
Experimental: In one experiment, male FVB/n5 Rag-1−/− mice were injected with […] PC3-EGFP (human prostate tumor cells stably expressing GFP) in the tibia four weeks prior to imaging with pzs. Prior to imaging, the mice were anesthetized with 4% isoflurane and injected with 20 nmol of compound 247 (150 μL, 7.5% DMSO) intravenously via the tail vein. Fluorescent images were acquired immediately and after 4, 24, and 42 hours. […] GFP images were acquired using excitation wavelengths of 465 nm and fluorescence was detected at 535 nm. X-ray images were acquired for anatomical co-registration.
The mice subsequently were euthanized, legs were excised, and images were acquired without the surrounding skin and muscle.

[3] = system: A549 tumor cells; assay: MTT assay, tumor cells; format: cell-based; details: 50 μM
Experimental: as §1

[4] = system: A549 lung carcinoma cells; assay: Confocal NIR fluorescence microscopy of cellular uptake, tumor cells; format: cell-based; details: confocal images; compound 247: 50 μM, 24 hr stain
Experimental: (§2) Cellular uptake monitored by confocal fluorescence microscopy is dependent on the pz's overall amphiphilicity, and qualitative analysis indicates preferential uptake into tumor cells (e.g., A549) over non-tumorigenic cells (e.g., WI38 VA13).
as §1

[5] = system: A549 lung carcinoma cells; assay: Time course studies of pz accumulation and cell viability; format: cell-based
Experimental: Time course studies also were performed using compounds 241, 243, 244, 246, 247, 249, 254, and 255 using A549 lung carcinoma cells and W138 VA13 non-tumorigenic cells. The studies confirmed accumulation of a present pz in tumor cells and a decrease in tumor cell viability.

[6] = system: WI38 VA13 non-tumorigenic cells; assay: Confocal NIR fluorescence microscopy of cellular uptake, non-tumorigenic cells; format: cell-based; details: confocal images; 50 μM
Experimental: as §2, §1
Therefore, compound 270, a pz having a single appended Gd^3+, was synthesized.

[7] = system: MDA-MB-231-RFP subcutaneous tumors; assay: NIR fluorescence imaging of subcutaneous tumors in female SCID mice; format: in vivo, mouse
Description: In a second experiment to verify that compound 247 robustly and reproducibly localizes in tumors of more than one tissue origin, female SCID mice were subcutaneously injected with MDA-MB-231-RFP cells stably expressing Red Fluorescent Protein (RFP). This approach provides excellent confirming information because (a) palpable subcutaneous tumors are easily identified prior to imaging as opposed to bone tumors which are difficult to detect non-invasively; (b) RFP-expressing tumors are visible through the skin as opposed to GFP tumors, which require removal of skin prior to imaging; (c) pz localization in the tumor is visible during non-invasive whole animal imaging; and (d) tumors are easily harvested, fixed, and processed for histochemical and biochemical analyses. Five mice were dosed with 20 nmol of compound 247 in 7.5% DMSO, administered intravenously. The […] wavelength used for RFP excitation was 535 nm with emission detected using a 565-615 nm bandpass filter. Compound 247 was excited using a 625 nm bandpass and emission detected at 700 nm. […] Therefore, there is no penetration of undesired signal during imaging. Images were acquired for RFP, as well as pz fluorescence, after 5, 24, 32 and 48 hours. […] With this remarkable contrast, compound 247 therefore acts as a ‘turn-on’ NIR-fluorescence tumor imager. At the conclusion of the 48 hour experiment, the tumors were excised and processed for antibody staining. Slices were stained for nuclei (DAPI) to determine the localization of pzs within heterogeneous 3-dimensional tumors. […] The important benefit of having the RFP and pz survive tissue processing is noted.

[8] = Relaxivity (r1) of Gd-pz conjugates; format: physicochemical
Experimental: Dual-mode contrast agents were generated by coupling pz optical agents with gadolinium-based (Gd^3+) MR agents in order to permit co-registration of optical and MR image data. The synthetic versatility of the present pz structure allows a variety of strategies for attaching multiple MR imaging agents, for example, Gd^3+ chelates, to the pz structure. […] The relaxivity of a Gd^3+ chelate attached to a pz ranges from about 10 to about 14 mM-1s-1/Gd (Table 1).
In the preparation of Gd-pzs, ‘click’ chemistry was used to append 4 and 8 Gd^3+ chelates to an M[pz(A2; B2)] pz, leading to the Gd8-Mpz conjugate (M=Zn, Cu) shown above, and analogous Gd-4-Mpz conjugates having one chelate per pz ‘arm’. […] This is significant because the higher the observed relaxivity of the conjugate, the greater its efficacy as an in vivo MR contrast agent. Importantly, these conjugates are suitable as dual-mode contrast agents because the presence of as many as eight Gd agents has no significant influence on the pz luminescence for the M=Zn complex. In addition, the pz-Gd conjugates are water soluble and can be administered to rodents without the addition of DMSO.

| SMILES | Toxicity to non-tumorigenic cells (MTT) [1] | pz fluorescence location after 4 hours ([2]; 20 nmol i.v. tail vein, 4 hours) | pz fluorescence location after 24 hours ([2]; 20 nmol i.v. tail vein, 24 hours) | Red fluorescence location in excised legs ([2]; 20 nmol, excised legs without skin and muscle, overlay with GFP) | Retention in tumor-free tibia ([2]; mouse 3 without tumor) | Toxicity to tumor cells (MTT) [3] | Uptake/accumulation in A549 lung carcinoma cells (NIR fluorescence) [4] | Accumulation of pz in tumor cells [5] | Tumor cell viability [5] | Uptake into WI38 VA13 cells (NIR fluorescence) [6] | Time until pz fluorescence detectable in tumor ([7]; 20 nmol i.v. in 7.5% DMSO) | pz fluorescence intensity in tumor over time ([7]; 20 nmol i.v., over the 48 hour experiment) | pz fluorescence in other organs or tissues ([7]; 20 nmol i.v., up to 48 hours) | Accumulation in MDA-231 tumors in vivo ([7]; 20 nmol tail vein, 5 to 48 hours) | Localization within excised tumor sections ([7]; tumors excised at 48 hours, DAPI-stained slices) | Relaxivity r1/Gd ([8]; per Gd) | Relaxivity r1 (molecular relaxivity) ([8]; per molecule) |
| --- | --- | --- | --- | --- | --- | --- | --- | --- | --- | --- | --- | --- | --- | --- | --- | --- | --- |
| CO[C@]1(C)Oc2c(c3nc4nc(nc5[nH]c(nc6nc(nc2[nH]3)-c2c(OC(C)C)ccc(OC(C)C)c2-6)c2c5O[C@@](C)(OC)[C@](C)(OC)O2)-c2c(OC(C)C)ccc(OC(C)C)c2-4)O[C@@]1(C)OC [Compound 247] | non-toxic | seen in the liver | highly localized in the mouse tibia tumors | localized in the tumors | not non-specifically retained in the bones | mildly toxic | excellent uptake | accumulation | decrease | lesser uptake | ≤ 5 h | increased dramatically | no pz fluorescence in other mouse organs or tissues | accumulates over time | precise colocalization of compound 247 with the tumor cytosol |  |  |
| O=C([O-])CN1CCN(CC(=O)[O-])CCN(CC(=O)O)CCN(CC(=O)[O-])CC1.[Gd+3] [Gd-DOTA, gadolinium tetrazacyclododecanetetraacetic acid] |  |  |  |  |  |  |  |  |  |  |  |  |  |  |  | 3.2 mM⁻¹ s⁻¹ | 3.2 mM⁻¹ s⁻¹ |
